Measured values from publication PMC9496563, “Functional Evaluation and Nephrotoxicity Assessment of Human Renal Proximal Tubule Cells on a Chip” (Biosensors, 2022).
Where two headings read alike, the source gives them in different places. One block for each compound: values may come before it.

Legend:
[1] = test system: hRPTECs; test: Active absorption (Papp) through hRPTECs on the iBAC; format: in vitro ADME, human; conditions: for Papp value: hRPTECs on the iBAC, day 4, two hours of dynamic absorption, FITC-albumin (Megalin/Cubilin), ASP+ (OCT2), 5-CF (OAT1)
Experimental: (§1) After the microdevice was assembled, it was exposed to ultraviolet light for 30 min. The porous membrane was coated with collagen type I hydrogel at 37 °C for 2 h. The hRPTECs or HK2 cells (2 × 10^5 cells/ cm^2) were seeded on the lower microfluidic channel and incubated upside down at 37 °C for 2 h, allowing the seeded hRPTECs or HK2 cells to attach to the porous membrane surface. Then, 100 μL of the culture medium was added to each chamber and the device was placed on the iBAC Rocker (MR100110, Daxiang biotech, Beijing, China) for dynamic culture.
(§2) After two hours of dynamic absorption, the sample concentrations of FITC-albumin (Ex = 495 nm, Em = 535 nm), ASP+ (Ex = 474 nm, Em = 606 nm) and 5−CF (Ex = 490 nm, Em = 515 nm) were detected by using a microplate reader (BMG Labtech, Germany).
(§3) The Papp was calculated using the equation below:Papp [cm/s] = (1/AC0)(dQ/dt) where A = area of mass transfer, C0 = donor concentration of reagent in the upper medium, and dQ/dt = transmembrane transportation rate.

[2] = test system: hRPTECs; test: Active absorption (Papp) through hRPTECs on the static Transwell; format: in vitro ADME, human; conditions: day 4
Experimental: as §2, §3

[3] = test system: HK2 cells; test: Active absorption (Papp) through HK2 model on the iBAC; format: in vitro ADME, human; conditions: day 4
Experimental: as §1, §2, §3

[4] = biological target: T1, BCRP (Homo sapiens, UniProt Q9UNQ0); test: BCRP efflux function (DiOC2 with or without Ko143), hRPTECs on the iBAC; format: in vitro ADME
T1 sequence (Q9UNQ0 1-655): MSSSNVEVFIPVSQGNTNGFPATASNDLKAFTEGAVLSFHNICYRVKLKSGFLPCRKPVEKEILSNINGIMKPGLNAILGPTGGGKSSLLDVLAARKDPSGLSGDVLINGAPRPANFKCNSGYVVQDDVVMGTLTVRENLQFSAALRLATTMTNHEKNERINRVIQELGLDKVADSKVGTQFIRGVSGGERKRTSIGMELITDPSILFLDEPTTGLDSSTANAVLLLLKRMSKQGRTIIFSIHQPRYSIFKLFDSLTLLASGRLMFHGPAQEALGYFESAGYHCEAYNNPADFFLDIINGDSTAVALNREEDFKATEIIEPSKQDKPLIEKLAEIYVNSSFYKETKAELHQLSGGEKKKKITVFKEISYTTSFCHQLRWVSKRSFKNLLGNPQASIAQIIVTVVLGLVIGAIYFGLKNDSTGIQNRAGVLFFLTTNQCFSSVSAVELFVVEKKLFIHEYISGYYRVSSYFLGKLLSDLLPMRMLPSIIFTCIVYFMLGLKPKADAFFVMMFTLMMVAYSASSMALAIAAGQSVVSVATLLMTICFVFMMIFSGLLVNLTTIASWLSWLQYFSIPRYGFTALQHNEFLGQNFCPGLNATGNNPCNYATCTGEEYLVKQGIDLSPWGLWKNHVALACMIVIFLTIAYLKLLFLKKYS
Experimental: as §3

[5] = biological target: T1, BCRP; test: BCRP efflux function (DiOC2 with or without Ko143), HK2 model on the iBAC; format: in vitro ADME; conditions: without inhibitor
Experimental: as §3

[6] = test system: hRPTECs; format: cell-based, human; conditions: hRPTECs on the iBAC, 24 h
Experimental: as §1
(§4) The Live/Dead kit (Thermo Fisher, Waltham, MA, USA), LDH kit (Life Technologies, Paisley, UK) and CellTiter-Glo (Promega, Madison, WI, USA) were used to evaluate cell viability on the iBAC. These assays were performed on test compound-treated monolayers following the manufacturer’s instructions. The assay protocols are described briefly here. In the live/dead cell assay, the cells were incubated with the live/dead cell imaging reagents for 15–30 min at 37 °C and observed under a fluorescent microscope. […] In the CellTiter-Glo luminescent cell viability assay, the cells were incubated with the CellTiter-Glo reagents for 30 min at room temperature and detected with a microplate reader. […] The absorbance was then taken at 490 nm and 680 nm using a microplate reader (BMG Labtech, Germany).

[7] = test system: HK2 cells; test: LDH release from HK2 cells on the iBAC; format: cell-based, human; conditions: 24 h
Experimental: as §1, §4

[8] = test system: hRPTECs; format: cell-based
Experimental: as §1
(§5) The Live/Dead kit (Thermo Fisher, Waltham, MA, USA), LDH kit (Life Technologies, Paisley, UK) and CellTiter-Glo (Promega, Madison, WI, USA) were used to evaluate cell viability on the iBAC. These assays were performed on test compound-treated monolayers following the manufacturer’s instructions. The assay protocols are described briefly here. In the live/dead cell assay, the cells were incubated with the live/dead cell imaging reagents for 15–30 min at 37 °C and observed under a fluorescent microscope. The viable cells were stained green, while the dead ones were stained red. In the CellTiter-Glo luminescent cell viability assay, the cells were incubated with the CellTiter-Glo reagents for 30 min at room temperature and detected with a microplate reader. For the LDH assay, 50 μL of medium from each well of the treatment plates was transferred into fresh 96-well plates and an equal volume of LDH reaction mixture was added. The samples were incubated at room temperature for 30 min before the reaction was stopped by adding 50 μL of stop solution. The absorbance was then taken at 490 nm and 680 nm using a microplate reader (BMG Labtech, Germany).

[9] = test system: HK2 cells; test: cells; format: cell-based; conditions: HK2 cells on the iBAC, 48 h; for IC50: Homo sapiens, HK-2, apical side, read-out: IC50 (cell viability)
Experimental: as §1, §5

[10] = biological target: T2, P-gp (Homo sapiens, UniProt P08183); test: in vitro
T2 sequence (P08183 whole entry): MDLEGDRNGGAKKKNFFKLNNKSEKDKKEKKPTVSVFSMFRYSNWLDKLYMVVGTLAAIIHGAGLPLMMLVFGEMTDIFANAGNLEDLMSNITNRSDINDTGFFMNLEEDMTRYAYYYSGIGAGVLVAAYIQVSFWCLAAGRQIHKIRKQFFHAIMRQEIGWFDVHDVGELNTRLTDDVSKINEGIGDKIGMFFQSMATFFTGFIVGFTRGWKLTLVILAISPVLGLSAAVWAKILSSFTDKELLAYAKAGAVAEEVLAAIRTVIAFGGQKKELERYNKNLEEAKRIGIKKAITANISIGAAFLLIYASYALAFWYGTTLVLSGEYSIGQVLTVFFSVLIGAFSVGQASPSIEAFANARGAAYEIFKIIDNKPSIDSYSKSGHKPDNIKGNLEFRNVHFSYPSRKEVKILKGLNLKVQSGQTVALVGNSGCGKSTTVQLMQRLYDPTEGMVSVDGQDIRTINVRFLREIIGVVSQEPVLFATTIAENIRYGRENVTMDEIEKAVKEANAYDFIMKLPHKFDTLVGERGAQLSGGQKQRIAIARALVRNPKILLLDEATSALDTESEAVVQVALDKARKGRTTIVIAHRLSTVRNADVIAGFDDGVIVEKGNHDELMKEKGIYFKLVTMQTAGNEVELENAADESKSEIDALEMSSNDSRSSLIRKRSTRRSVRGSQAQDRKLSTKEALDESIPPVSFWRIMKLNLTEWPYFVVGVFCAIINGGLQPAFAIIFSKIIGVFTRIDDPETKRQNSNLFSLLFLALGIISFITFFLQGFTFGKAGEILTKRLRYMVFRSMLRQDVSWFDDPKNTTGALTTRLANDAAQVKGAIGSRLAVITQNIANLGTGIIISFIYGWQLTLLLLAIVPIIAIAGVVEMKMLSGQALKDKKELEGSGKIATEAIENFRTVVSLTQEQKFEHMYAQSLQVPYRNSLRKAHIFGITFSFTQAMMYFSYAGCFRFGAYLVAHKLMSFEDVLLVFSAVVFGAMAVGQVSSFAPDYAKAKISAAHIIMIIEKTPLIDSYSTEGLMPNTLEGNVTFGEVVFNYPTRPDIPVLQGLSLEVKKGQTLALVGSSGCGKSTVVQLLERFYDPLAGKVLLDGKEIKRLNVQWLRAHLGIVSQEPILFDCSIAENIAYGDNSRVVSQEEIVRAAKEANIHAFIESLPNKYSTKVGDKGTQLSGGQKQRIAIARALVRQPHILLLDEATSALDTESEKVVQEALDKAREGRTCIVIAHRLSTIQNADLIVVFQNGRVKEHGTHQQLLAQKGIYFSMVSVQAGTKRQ

[11] = biological target: T2, P-gp; test: P-gp efflux function (rhodamine 123 with or without verapamil), hRPTECs on the iBAC; conditions: hRPTECs model, without inhibitor
[12] = biological target: T2, P-gp; test: P-gp efflux function (rhodamine 123 with or without verapamil), HK2 model on the iBAC; conditions: without inhibitor

Compound: CN/C(=N/CCSCc1nc[nH]c1C)NC#N [cimetidine, Cimetidine]
Relative LDH release with cisplatin in the presence of the cimetidine [6]: 93%
Relative LDH release with cisplatin in the presence of the cimetidine [7]: 109%

Compound: COc1cccc2c1C(=O)c1c(O)c3c(c(O)c1C2=O)C[C@@](O)(C(=O)CO)C[C@@H]3O[C@H]1C[C@H](N)[C@H](O)[C@H](C)O1 [doxorubicin]
Toxicity on the apical side (cell viability) [8]: induced toxicity
Toxicity on the basal side (cell viability) [8]: only induced nephrotoxicity on the apical side dosing
IC50 [9]: 14.2 µM

Compound: CCN(CC)CCNC(=O)c1c(C)[nH]c(/C=C2\C(=O)Nc3ccc(F)cc32)c1C [sunitinib]
Toxicity on the apical side (cell viability) [8]: induced toxicity
Toxicity on the basal side (cell viability) [8]: only induced nephrotoxicity on the apical side dosing
IC50 [9]: 29 µM

Compound: polymyxin B
Toxicity on the apical side (cell viability) ([8]; hRPTECs on the iBAC, apical administration, 48 h): induced toxicity
Toxicity on the basal side (cell viability) ([8]; hRPTECs on the iBAC, basal administration, 48 h): induced toxicity
Toxicity on both sides (cell viability) ([9]; apical and basal administration): not toxic

The next lines start with results.

Papp value [1]: 0.039 ×10⁻⁶ cm/s
Papp value [2]: 0.002 ×10⁻⁶ cm/s
Papp value [3]: 0.009 ×10⁻⁶ cm/s
Compound: 5(6)-Carboxyfluorescein [5−CF]

Papp value [1]: 9.2 ×10⁻⁶ cm/s
Papp value [3]: 2.3 ×10⁻⁶ cm/s
Compound: CN(C)c1ccc(/C=C/c2cc[n+](C)cc2)cc1.[I-] [ASP+, 4-Di-1-ASP]
Papp value, iBAC compared with Transwell ([1]; hRPTECs, day 4): significantly higher than that on the Transwell

Cumulative amount of substrate in cells ([4]; hRPTECs model, without inhibitor): very low
Papp value of DiOC2 without Ko143 ([4]; hRPTECs on the iBAC, DiOC2 10 μM): 4.6 ×10⁻⁶ cm/s
Papp value of DiOC2 with Ko143 ([4]; hRPTECs on the iBAC, DiOC2 10 μM, Ko143 10 μM): 4.1 ×10⁻⁶ cm/s
Cumulative amount of substrate in cells [5]: very low
Compound: CCN1/C(=C/C=C/c2oc3ccccc3[n+]2CC)Oc2ccccc21.[I-] [DiOC2]

Papp at 2 h, 2 μM [10]: 13 ×10⁻⁶ cm/s
Cumulative amount of substrate in cells [11]: very low
Cumulative amount of substrate in cells [12]: very low
Compound: COC(=O)c1ccccc1-c1c2ccc(=N)cc-2oc2cc(N)ccc12 [rhodamine 123, Rhodamine 123]
